According to patent publication US7118895B2, “Process for producing aglycon by using diglycosidase and flavor-improved food containing the aglycon and converting agent to be used in the process” (Amano Enzyme Inc., priority 2000, dated 2006):

System: Crude diglycosidase
Assay: Examination of pH in the conversion into isoflavone aglycons by diglycosidase using soybean materials
Assay type: biochemical, Penicillium multicolor IAM7153
Conditions: for Decomposition efficiency of glycitin family in roasted soy flour / Decomposition efficiency of glycitin family in soymilk: 55° C.
Procedure, shortened: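 Suspensions of 50 mg roasted soy flour, soymilk, defatted soybean or concentrated soy protein were brought to pH 2 to 11 with HCl or NaOH and reacted at 55° C with crude diglycosidase (enzyme solution at 1.88 AU/mL, same pH). Ethanol-stopped samples at 0, 1, 3 and 6 h were analysed by HPLC.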

[1] = pH6.6, heat treatment of enzyme: no, reaction time 0 h
[2] = pH6.6, heat treatment of enzyme: no, reaction time 1 h
[3] = pH6.6, heat treatment of enzyme: no, reaction time 3 h
[4] = pH6.6, heat treatment of enzyme: no, reaction time 6 h
[5] = pH6.6, heat treatment of enzyme: yes, reaction time 6 h

Structure (SMILES): COc1cc2c(=O)c(-c3ccc(O)cc3)coc2cc1O[C@@H]1O[C@H](COC(=O)CC(=O)O)[C@@H](O)[C@H](O)[C@H]1O [malonylglycitin, 6″-O-malonylglycitin]
- Decomposition efficiency of glycitin family in concentrated soybean protein (pH1.6, heat treatment of enzyme: no, reaction time 0 h): 0.4%
- Decomposition efficiency of glycitin family in concentrated soybean protein (pH1.6, heat treatment of enzyme: no, reaction time 1 h): 0.4%
- Decomposition efficiency of glycitin family in concentrated soybean protein (pH1.6, heat treatment of enzyme: no, reaction time 3 h): 0.4%
- Decomposition efficiency of glycitin family in concentrated soybean protein (pH1.6, heat treatment of enzyme: no, reaction time 6 h): 0.4%
- Decomposition efficiency of glycitin family in concentrated soybean protein (pH1.6, heat treatment of enzyme: yes, reaction time 6 h): 0.4%
- Decomposition efficiency of glycitin family in roasted soy flour (pH2, heat treatment of enzyme no, reaction time 0 h): not detected
- Decomposition efficiency of glycitin family in roasted soy flour (pH2, heat treatment of enzyme no, reaction time 1 h): not detected
- Decomposition efficiency of glycitin family in roasted soy flour (pH2, heat treatment of enzyme no, reaction time 3 h): not detected
- Decomposition efficiency of glycitin family in roasted soy flour (pH2, heat treatment of enzyme no, reaction time 6 h): not detected
- Decomposition efficiency of glycitin family in roasted soy flour (pH2, heat treatment of enzyme yes, reaction time 6 h): not detected
- Decomposition efficiency of glycitin family in soymilk (pH2.3, heat treatment of enzyme no, reaction time 0 h): 42.6
- Decomposition efficiency of glycitin family in soymilk (pH2.3, heat treatment of enzyme no, reaction time 1 h): 51.3
- Decomposition efficiency of glycitin family in soymilk (pH2.3, heat treatment of enzyme no, reaction time 3 h): 47.7
- Decomposition efficiency of glycitin family in soymilk (pH2.3, heat treatment of enzyme no, reaction time 6 h): 46.5
- Decomposition efficiency of glycitin family in soymilk (pH2.3, heat treatment of enzyme yes, reaction time 6 h): 41.3
- Decomposition efficiency of glycitin family in defatted soybean (pH2.6, heat treatment of enzyme: no, reaction time 0 h): 100.0%
- Decomposition efficiency of glycitin family in defatted soybean (pH2.6, heat treatment of enzyme: no, reaction time 1 h): 100.0%
- Decomposition efficiency of glycitin family in defatted soybean (pH2.6, heat treatment of enzyme: no, reaction time 3 h): 100.0%
- Decomposition efficiency of glycitin family in defatted soybean (pH2.6, heat treatment of enzyme: no, reaction time 6 h): 100.0%
- Decomposition efficiency of glycitin family in defatted soybean (pH2.6, heat treatment of enzyme: yes, reaction time 6 h): 100.0%
- Decomposition efficiency of glycitin family in concentrated soybean protein (pH2.7, heat treatment of enzyme: no, reaction time 0 h): 0.4%
- Decomposition efficiency of glycitin family in concentrated soybean protein (pH2.7, heat treatment of enzyme: no, reaction time 1 h): 0.5%
- Decomposition efficiency of glycitin family in concentrated soybean protein (pH2.7, heat treatment of enzyme: no, reaction time 3 h): 0.5%
- Decomposition efficiency of glycitin family in concentrated soybean protein (pH2.7, heat treatment of enzyme: no, reaction time 6 h): 0.5%
- Decomposition efficiency of glycitin family in concentrated soybean protein (pH2.7, heat treatment of enzyme: yes, reaction time 6 h): 0.4%
- Decomposition efficiency of glycitin family in roasted soy flour (pH3, heat treatment of enzyme no, reaction time 0 h): not detected
- Decomposition efficiency of glycitin family in roasted soy flour (pH3, heat treatment of enzyme no, reaction time 1 h): not detected
- Decomposition efficiency of glycitin family in roasted soy flour (pH3, heat treatment of enzyme no, reaction time 3 h): not detected
- Decomposition efficiency of glycitin family in roasted soy flour (pH3, heat treatment of enzyme no, reaction time 6 h): not detected
- Decomposition efficiency of glycitin family in roasted soy flour (pH3, heat treatment of enzyme yes, reaction time 6 h): not detected
- Decomposition efficiency of glycitin family in defatted soybean (pH3.4, heat treatment of enzyme: no, reaction time 0 h): 100.0%
- Decomposition efficiency of glycitin family in defatted soybean (pH3.4, heat treatment of enzyme: no, reaction time 1 h): 100.0%
- Decomposition efficiency of glycitin family in defatted soybean (pH3.4, heat treatment of enzyme: no, reaction time 3 h): 100.0%
- Decomposition efficiency of glycitin family in defatted soybean (pH3.4, heat treatment of enzyme: no, reaction time 6 h): 100.0%
- Decomposition efficiency of glycitin family in defatted soybean (pH3.4, heat treatment of enzyme: yes, reaction time 6 h): 100.0%
- Decomposition efficiency of glycitin family in soymilk (pH3.5, heat treatment of enzyme no, reaction time 0 h): 42.6
- Decomposition efficiency of glycitin family in soymilk (pH3.5, heat treatment of enzyme no, reaction time 1 h): 21.9
- Decomposition efficiency of glycitin family in soymilk (pH3.5, heat treatment of enzyme no, reaction time 3 h): not detected
- Decomposition efficiency of glycitin family in soymilk (pH3.5, heat treatment of enzyme no, reaction time 6 h): not detected
- Decomposition efficiency of glycitin family in soymilk (pH3.5, heat treatment of enzyme yes, reaction time 6 h): 38.2
- Decomposition efficiency of glycitin family in concentrated soybean protein (pH3.7, heat treatment of enzyme: no, reaction time 0 h): 0.4%
- Decomposition efficiency of glycitin family in concentrated soybean protein (pH3.7, heat treatment of enzyme: no, reaction time 1 h): 0.5%
- Decomposition efficiency of glycitin family in concentrated soybean protein (pH3.7, heat treatment of enzyme: no, reaction time 3 h): 0.4%
- Decomposition efficiency of glycitin family in concentrated soybean protein (pH3.7, heat treatment of enzyme: no, reaction time 6 h): 0.4%
- Decomposition efficiency of glycitin family in concentrated soybean protein (pH3.7, heat treatment of enzyme: yes, reaction time 6 h): 0.4%
- Decomposition efficiency of glycitin family in roasted soy flour (pH4, heat treatment of enzyme no, reaction time 0 h): not detected
- Decomposition efficiency of glycitin family in roasted soy flour (pH4, heat treatment of enzyme no, reaction time 1 h): not detected
- Decomposition efficiency of glycitin family in roasted soy flour (pH4, heat treatment of enzyme no, reaction time 3 h): not detected
- Decomposition efficiency of glycitin family in roasted soy flour (pH4, heat treatment of enzyme no, reaction time 6 h): not detected
- Decomposition efficiency of glycitin family in roasted soy flour (pH4, heat treatment of enzyme yes, reaction time 6 h): not detected
- Decomposition efficiency of glycitin family in soymilk (pH4.8, heat treatment of enzyme no, reaction time 0 h): 43.2
- Decomposition efficiency of glycitin family in soymilk (pH4.8, heat treatment of enzyme no, reaction time 1 h): 37.0
- Decomposition efficiency of glycitin family in soymilk (pH4.8, heat treatment of enzyme no, reaction time 3 h): 21.1
- Decomposition efficiency of glycitin family in soymilk (pH4.8, heat treatment of enzyme no, reaction time 6 h): 8.3
- Decomposition efficiency of glycitin family in soymilk (pH4.8, heat treatment of enzyme yes, reaction time 6 h): 39.2
- Decomposition efficiency of glycitin family in defatted soybean (pH4.8, heat treatment of enzyme: no, reaction time 0 h): 64.0%
- Decomposition efficiency of glycitin family in defatted soybean (pH4.8, heat treatment of enzyme: no, reaction time 1 h): 40.1%
- Decomposition efficiency of glycitin family in defatted soybean (pH4.8, heat treatment of enzyme: no, reaction time 3 h): 37.5%
- Decomposition efficiency of glycitin family in defatted soybean (pH4.8, heat treatment of enzyme: no, reaction time 6 h): 31.9%
- Decomposition efficiency of glycitin family in defatted soybean (pH4.8, heat treatment of enzyme: yes, reaction time 6 h): 56.2%
- Decomposition efficiency of glycitin family in roasted soy flour (pH5, heat treatment of enzyme no, reaction time 0 h): not detected
- Decomposition efficiency of glycitin family in roasted soy flour (pH5, heat treatment of enzyme no, reaction time 1 h): not detected
- Decomposition efficiency of glycitin family in roasted soy flour (pH5, heat treatment of enzyme no, reaction time 3 h): not detected
- Decomposition efficiency of glycitin family in roasted soy flour (pH5, heat treatment of enzyme no, reaction time 6 h): not detected
- Decomposition efficiency of glycitin family in roasted soy flour (pH5, heat treatment of enzyme yes, reaction time 6 h): not detected
- Decomposition efficiency of glycitin family in concentrated soybean protein (pH5.1, heat treatment of enzyme: no, reaction time 0 h): 0.4%
- Decomposition efficiency of glycitin family in concentrated soybean protein (pH5.1, heat treatment of enzyme: no, reaction time 1 h): 0.6%
- Decomposition efficiency of glycitin family in concentrated soybean protein (pH5.1, heat treatment of enzyme: no, reaction time 3 h): 0.6%
- Decomposition efficiency of glycitin family in concentrated soybean protein (pH5.1, heat treatment of enzyme: no, reaction time 6 h): 0.6%
- Decomposition efficiency of glycitin family in concentrated soybean protein (pH5.1, heat treatment of enzyme: yes, reaction time 6 h): 0.4%
- Decomposition efficiency of glycitin family in defatted soybean (pH5.4, heat treatment of enzyme: no, reaction time 0 h): 64.0%
- Decomposition efficiency of glycitin family in defatted soybean (pH5.4, heat treatment of enzyme: no, reaction time 1 h): 45.1%
- Decomposition efficiency of glycitin family in defatted soybean (pH5.4, heat treatment of enzyme: no, reaction time 3 h): 100.0%
- Decomposition efficiency of glycitin family in defatted soybean (pH5.4, heat treatment of enzyme: no, reaction time 6 h): 32.3%
- Decomposition efficiency of glycitin family in defatted soybean (pH5.4, heat treatment of enzyme: yes, reaction time 6 h): 39.3%
- Decomposition efficiency of glycitin family in soymilk (pH6.2, heat treatment of enzyme no, reaction time 0 h): 43.2
- Decomposition efficiency of glycitin family in soymilk (pH6.2, heat treatment of enzyme no, reaction time 1 h): 46.4
- Decomposition efficiency of glycitin family in soymilk (pH6.2, heat treatment of enzyme no, reaction time 3 h): 34.5
- Decomposition efficiency of glycitin family in soymilk (pH6.2, heat treatment of enzyme no, reaction time 6 h): 29.6
- Decomposition efficiency of glycitin family in soymilk (pH6.2, heat treatment of enzyme yes, reaction time 6 h): 37.6
- Decomposition efficiency of glycitin family in roasted soy flour (pH6.5, heat treatment of enzyme no, reaction time 0 h): not detected
- Decomposition efficiency of glycitin family in roasted soy flour (pH6.5, heat treatment of enzyme no, reaction time 1 h): not detected
- Decomposition efficiency of glycitin family in roasted soy flour (pH6.5, heat treatment of enzyme no, reaction time 3 h): not detected
- Decomposition efficiency of glycitin family in roasted soy flour (pH6.5, heat treatment of enzyme no, reaction time 6 h): not detected
- Decomposition efficiency of glycitin family in roasted soy flour (pH6.5, heat treatment of enzyme yes, reaction time 6 h): not detected
- Decomposition efficiency of glycitin family in concentrated soybean protein [1]: 0.4%
- Decomposition efficiency of glycitin family in defatted soybean [1]: 39.6%
- Decomposition efficiency of glycitin family in concentrated soybean protein [2]: 0.4%
- Decomposition efficiency of glycitin family in defatted soybean [2]: 52.9%
- Decomposition efficiency of glycitin family in concentrated soybean protein [3]: 0.4%
- Decomposition efficiency of glycitin family in defatted soybean [3]: 53.6%
- Decomposition efficiency of glycitin family in concentrated soybean protein [4]: 0.4%
- Decomposition efficiency of glycitin family in defatted soybean [4]: 58.1%
- Decomposition efficiency of glycitin family in concentrated soybean protein [5]: 0.4%
- Decomposition efficiency of glycitin family in defatted soybean [5]: 50.3%
- Decomposition efficiency of glycitin family in soymilk (pH7.2, heat treatment of enzyme no, reaction time 0 h): 43.9
- Decomposition efficiency of glycitin family in soymilk (pH7.2, heat treatment of enzyme no, reaction time 1 h): 48.8
- Decomposition efficiency of glycitin family in soymilk (pH7.2, heat treatment of enzyme no, reaction time 3 h): 46.2
- Decomposition efficiency of glycitin family in soymilk (pH7.2, heat treatment of enzyme no, reaction time 6 h): 41.6
- Decomposition efficiency of glycitin family in soymilk (pH7.2, heat treatment of enzyme yes, reaction time 6 h): 37.5
- Decomposition efficiency of glycitin family in defatted soybean (pH7.8, heat treatment of enzyme: no, reaction time 0 h): 66.8%
- Decomposition efficiency of glycitin family in defatted soybean (pH7.8, heat treatment of enzyme: no, reaction time 1 h): 57.5%
- Decomposition efficiency of glycitin family in defatted soybean (pH7.8, heat treatment of enzyme: no, reaction time 3 h): 53.2%
- Decomposition efficiency of glycitin family in defatted soybean (pH7.8, heat treatment of enzyme: no, reaction time 6 h): 49.1%
- Decomposition efficiency of glycitin family in defatted soybean (pH7.8, heat treatment of enzyme: yes, reaction time 6 h): 55.8%
- Decomposition efficiency of glycitin family in roasted soy flour (pH8.5, heat treatment of enzyme no, reaction time 0 h): not detected
- Decomposition efficiency of glycitin family in roasted soy flour (pH8.5, heat treatment of enzyme no, reaction time 1 h): not detected
- Decomposition efficiency of glycitin family in roasted soy flour (pH8.5, heat treatment of enzyme no, reaction time 3 h): not detected
- Decomposition efficiency of glycitin family in roasted soy flour (pH8.5, heat treatment of enzyme no, reaction time 6 h): not detected
- Decomposition efficiency of glycitin family in roasted soy flour (pH8.5, heat treatment of enzyme yes, reaction time 6 h): not detected
- Decomposition efficiency of glycitin family in concentrated soybean protein (pH8.6, heat treatment of enzyme: no, reaction time 0 h): 0.4%
- Decomposition efficiency of glycitin family in concentrated soybean protein (pH8.6, heat treatment of enzyme: no, reaction time 1 h): 0.4%
- Decomposition efficiency of glycitin family in concentrated soybean protein (pH8.6, heat treatment of enzyme: no, reaction time 3 h): 0.4%
- Decomposition efficiency of glycitin family in concentrated soybean protein (pH8.6, heat treatment of enzyme: no, reaction time 6 h): 0.4%
- Decomposition efficiency of glycitin family in concentrated soybean protein (pH8.6, heat treatment of enzyme: yes, reaction time 6 h): 0.3%
- Decomposition efficiency of glycitin family in soymilk (pH11.6, heat treatment of enzyme no, reaction time 0 h): 39.4
- Decomposition efficiency of glycitin family in soymilk (pH11.6, heat treatment of enzyme no, reaction time 1 h): 50.4
- Decomposition efficiency of glycitin family in soymilk (pH11.6, heat treatment of enzyme no, reaction time 3 h): 46.5
- Decomposition efficiency of glycitin family in soymilk (pH11.6, heat treatment of enzyme no, reaction time 6 h): 44.0
- Decomposition efficiency of glycitin family in soymilk (pH11.6, heat treatment of enzyme yes, reaction time 6 h): 34.4
